The conditions of series [1]: cited from earlier work.
The nature of series [2]: Water-solubility / water-dispersing ability (FIG. 1). Type of series: physicochemical. The note with it: FIG. 1, dispersed in water, bottle A vs bottle B.

The values that follow come from patent publication US10660855B2 (priority 2019, dated 2020).

On to Cannabidiol [CBD], for which, in series [1] (in vivo), the half-life entry is listed as “about 9 hours”. Moreover, in series [1] (nasal (inhalation)), the “bioavailability when being used nasally (inhalantly)” value is reported as “about 31%”. In addition, in series [1] (oral), the “bioavailability when being used orally” value is 13-19%. Moreover, in series [2], the water-dispersing ability entry was “insoluble in water”.
